Reference: patent US9024017B2, “Octahydro-cyclopentapyrrolyl antagonists of CCR2” (Janssen Pharmaceutica NV, priority 2012, dated 2015)

Target: T1, CCR2 (Homo sapiens, UniProt P41597)
T1 construct: host or cells: THP-1 (human monocytic cell line)
Assay: MCP-1 Receptor Binding Assay in THP-1 Cells
Conditions: read-out: MCP1B_v3 IC50
Summary of the method: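 Human monocytic THP-1 cells incubated 2 h at 30 °C with 0.5 nM 125I-MCP-1 and varying concentrations of test compound or unlabelled MCP-1. Cells filter-harvested and counted by scintillation; blank subtracted, compared with vehicle; nonspecific binding with 1 μM cold MCP-1.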

T1 sequence (P41597 whole entry): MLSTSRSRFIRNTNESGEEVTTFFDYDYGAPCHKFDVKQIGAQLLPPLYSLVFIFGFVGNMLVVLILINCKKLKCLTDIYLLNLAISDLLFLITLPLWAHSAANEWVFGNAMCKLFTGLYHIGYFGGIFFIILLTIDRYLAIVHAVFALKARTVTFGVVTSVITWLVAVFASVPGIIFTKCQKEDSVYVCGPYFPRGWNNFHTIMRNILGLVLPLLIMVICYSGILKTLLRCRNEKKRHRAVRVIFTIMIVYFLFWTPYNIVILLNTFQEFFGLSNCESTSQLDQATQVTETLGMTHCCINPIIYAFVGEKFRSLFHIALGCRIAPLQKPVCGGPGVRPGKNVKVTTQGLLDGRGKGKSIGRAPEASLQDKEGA

IC50	SMILES
40 nM	COC1COCCC1N[C@@H]1C[C@H]2CN(C(=O)OCC(C)C)C[C@@]2(C(=O)N2CCc3ncc(C(F)(F)F)cc3C2)C1 (relative stereo) [Example 64, (3aR,5R,6aR)-Isobutyl 5-(((3S*,4S*)-3-methoxytetrahydro-2H-pyran-4-yl)amino)-3a-(3-(trifluoromethyl)-5,6,7,8-tetrahydro-1,6-naphthyridine-6-carbonyl)hexahydro-cyclopenta[c]pyrrole-2(1H)-carboxylate]
110 nM	COC1COCCC1N[C@@H]1C[C@H]2CN(C(=O)NCC(C)C)C[C@@]2(C(=O)N2CCc3ncc(C(F)(F)F)cc3C2)C1 (relative stereo) [Example 15, (3aR,5R,6aR)-N-Isobutyl-5-(((3S*4S*)-(3-methoxytetrahydro-2H-pyran-4-yl)amino)-3a-(3-(trifluoromethyl)-5,6,7,8-tetrahydro-1,6-naphthyridine-6-carbonyl)hexahydrocyclopenta-[c]pyrrole-2(1H)-carboxamide]
10 nM	CO[C@@H]1COCC[C@@H]1N[C@@H]1C[C@H]2CN(C(=O)/C=C/c3cccc(C(=O)O)c3)C[C@@]2(C(=O)N2CCc3ccc(C(F)(F)F)cc3C2)C1 (relative stereo) [Example 90, 3-((E)-3-((3aR,5R,6aR)-5-(((3S*,4S*)-3-methoxytetrahydro-2H-pyran-4-yl)amino)-3a-(7-(trifluoromethyl)-1,2,3,4-tetrahydroisoquinoline-2-carbonyl)hexahydrocyclopenta-[c]pyrrol-2(1H)-yl)-3-oxoprop-1-en-1-yl)benzoic acid]
180 nM	COC1COCCC1N[C@@H]1C[C@H]2CN(C3CC3)C[C@@]2(C(=O)N2CCc3ncc(C(F)(F)F)cc3C2)C1 (relative stereo) [Example 94, ((3aR,5R,6aR)-2-Cyclopropyl-5-(((3S*,4S*)-3-methoxytetrahydro-2H-pyran-4-yl)amino)octahydrocyclopenta[c]pyrrol-3a-yl)(3-(trifluoromethyl)-7,8-dihydro-1,6-naphthyridin-6(5H)-yl)methanone]
130 nM	COC1COCCC1N[C@@H]1C[C@H]2CN(C(=O)COc3ccccc3)C[C@@]2(C(=O)N2CCc3ncc(C(F)(F)F)cc3C2)C1 (relative stereo) [Example 68, 1-((3aR,5R,6aR)-5-(((3S*,4S*)-3-Methoxytetrahydro-2H-pyran-4-yl)amino)-3a-(3-(trifluoromethyl)-5,6,7,8-tetrahydro-1,6-naphthyridine-6-carbonyl)hexahydrocyclopenta-[c]pyrrol-2(1H)-yl)-2-phenoxyethanone]
190 nM	CCOC1COCCC1N[C@@H]1C[C@H]2CN(C(N)=O)C[C@@]2(C(=O)N2CCc3ncc(C(F)(F)F)cc3C2)C1 (relative stereo) [Example 9, (3aR,5R,6aR)-5-(((3S*,4S*)-3-Ethoxytetrahydro-2H-pyran-4-yl)amino)-3a-(3-(trifluoromethyl)-5,6,7,8-tetrahydro-1,6-naphthyridine-6-carbonyl)hexahydrocyclopenta-[c]pyrrole-2(1H)-carboxamide]
80 nM	CO[C@H]1COCC[C@H]1N[C@@H]1C[C@H]2CN(C(=O)OCCC3CCOCC3)C[C@@]2(C(=O)N2CCc3ncc(C(F)(F)F)cc3C2)C1 [Example 44, (3aR,5R,6aR)-2-(Tetrahydro-2H-pyran-4-yl)ethyl 5-(((3R,4R)-3-methoxytetrahydro-2H-pyran-4-yl)amino)-3a-(3-(trifluoromethyl)-5,6,7,8-tetrahydro-1,6-naphthyridine-6-carbonyl)hexahydrocyclopenta[c]pyrrole-2(1H)-carboxylate]
1100 nM	COC(=O)CN1C[C@@H]2C[C@@H](NC3CCOCC3OC)C[C@]2(C(=O)N2CCc3ncc(C(F)(F)F)cc3C2)C1 (relative stereo) [Example 107, Methyl 2-((3aR,5R,6aR)-5-(((3S*,4S*)-3-methoxytetrahydro-2H-pyran-4-yl)amino)-3a-(3-(trifluoromethyl)-5,6,7,8-tetrahydro-1,6-naphthyridine-6-carbonyl)hexahydrocyclopenta[c]pyrrol-2(1H)-yl)acetate]
22800 nM	COC1COCCC1N[C@@H]1C[C@H]2C(=O)NC[C@@]2(C(=O)N2CCc3ncc(C(F)(F)F)cc3C2)C1 (relative stereo) [Example 118, (3aR,5R,6aR)-5-(((3S*,4S*)-3-Methoxytetrahydro-2H-pyran-4-yl)amino)-3a-(3-(trifluoromethyl)-5,6,7,8-tetrahydro-1,6-naphthyridine-6-carbonyl)hexahydro-cyclopenta[c]pyrrol-(2H)-one]
280 nM	COC1COCCC1N[C@@H]1C[C@H]2CN(C(=O)n3ccnc3)C[C@@]2(C(=O)N2CCc3ncc(C(F)(F)F)cc3C2)C1 (relative stereo) [Example 23, ((3aR,5R,6aR)-2-(1H-Imidazole-1-carbonyl)-5-(((3S*,4S*)-3-methoxytetrahydro-2H-pyran-4-yl)amino)octahydrocyclopenta[c]pyrrol-3a-yl)(3-(trifluoromethyl)-7,8-dihydro-1,6-naphthyridin-6(5H)-yl)methanone]
90 nM	COC1COCCC1N[C@@H]1C[C@H]2CN(C(=O)C#CC3CC3)C[C@@]2(C(=O)N2CCc3ncc(C(F)(F)F)cc3C2)C1 (relative stereo) [Example 86, 3-Cyclopropyl-1-((3aR,5R,6aR)-5-(((3S*,4S*)-3-methoxytetrahydro-2H-pyran-4-yl)amino)-3a-(3-(trifluoromethyl)-5,6,7,8-tetrahydro-1,6-naphthyridine-6-carbonyl)hexahydro-cyclopenta[c]pyrrol-2(1H)-yl)prop-2-yn-1-one]
80 nM	COC1COCCC1N[C@@H]1C[C@H]2CN(C(=S)n3ccnc3)C[C@@]2(C(=O)N2CCc3ncc(C(F)(F)F)cc3C2)C1 (relative stereo) [Example 31, ((3aR,5R,6aR)-2-(1H-Imidazole-1-carbonothioyl)-5-(((3S*,4S*)-3-methoxytetrahydro-2H-pyran-4-yl)amino)octahydrocyclopenta[c]pyrrol-3a-yl)(3-(trifluoromethyl)-7,8-dihydro-1,6-naphthyridin-6(5H)-yl)methanone]
470 nM	COC1COCCC1N[C@@H]1C[C@H]2CN(C(=O)Nc3ccccc3)C[C@@]2(C(=O)N2CCc3ncc(C(F)(F)F)cc3C2)C1 (relative stereo) [Example 16, (3aR,5R,6aR)-5-(((3S*,4S*)-(3-methoxytetrahydro-2H-pyran-4-yl)amino)-N-phenyl-3a-(3-(trifluoromethyl)-5,6,7,8-tetrahydro-1,6-naphthyridine-6-carbonyl)hexahydrocyclopenta-[c]pyrrole-2(1H)-carboxamide]
1800 nM	COC1COCCC1N[C@@H]1C[C@H]2CN(/C(N)=N/O)C[C@@]2(C(=O)N2CCc3ncc(C(F)(F)F)cc3C2)C1 (relative stereo) [Example 116, (3aR,5R,6aR,E)-N′-Hydroxy-5-(((3S*,4S*)-3-methoxytetrahydro-2H-pyran-4-yl)amino)-3a-(3-(trifluoromethyl)-5,6,7,8-tetrahydro-1,6-naphthyridine-6-carbonyl)hexahydro-cyclopenta[c]pyrrole-2(1H)-carboximidamide]
1350 nM	CO[C@@H]1COCC[C@H]1N[C@@H]1C[C@H]2CN(C(N)=O)C[C@@]2(C(=O)N2CCc3ncc(C(F)(F)F)cc3C2)C1 (relative stereo) [Example 5, (3aR,5R,6aR)-5-(((3S*,4R*)-(3-Methoxytetrahydro-2H-pyran-4-yl)amino)-3a-(3-(trifluoromethyl)-5,6,7,8-tetrahydro-1,6-naphthyridine-6-carbonyl)hexahydrocyclopenta-[c]pyrrole-2(1H)-carboxamide]
